# Reference: US20240199558A1, “2,4,6-TRISUBSTITUTED 1,3,5-TRIAZINES AS MODULATORS OF CX3CR1” (ASTRAZENECA AB, priority 2022, published 2024)
# Target: CX3CR1 (Homo sapiens (Human), UniProt P49238)
# Experiment: hCX3CR1 [3H]-AZD8797 competitive binding assay (filter)
# Conditions: CHO-hCX3CR1 membranes, 2 nM [3H]-AZD8797
# Procedure: hCX3CR1 [^3H]-AZD8797 Competitive Binding Assay (Filter)
# CHO-hCX3CR1 membranes (9 μg per well) together with 2 nM [^3H]-AZD8797 and different concentrations of competitor compound were incubated in 25 mM HEPES (pH 7.4), 10 mM MgCl2, 1 mM CaCl2) and 0.5% BSA in a Corning polystyrene flat-bottom 96-well plate. The plate was incubated for 2 h at room temperature before free radioligand was separated from bound by vacuum filtration on to a Multiscreen HTS+HiFlow FB (Millipore) filter plate, using a Biomek FX (Beckman Coulter). The filter plate was washed in ice-cold 25 mM HEPES (pH 7.4), 5 mM MgCl2, 1 mM CaCl2) and 500 mM NaCl and dried at 50° C. for 1 h. Scintillation cocktail, Optiphase Supermix (PerkinElmer) was added to each well and the radioactivity was measured using a MicroBeta Trilux reader (PerkinElmer). The DMSO concentration was held constant at 1%.
# Chain of CX3CR1 (P49238 whole entry): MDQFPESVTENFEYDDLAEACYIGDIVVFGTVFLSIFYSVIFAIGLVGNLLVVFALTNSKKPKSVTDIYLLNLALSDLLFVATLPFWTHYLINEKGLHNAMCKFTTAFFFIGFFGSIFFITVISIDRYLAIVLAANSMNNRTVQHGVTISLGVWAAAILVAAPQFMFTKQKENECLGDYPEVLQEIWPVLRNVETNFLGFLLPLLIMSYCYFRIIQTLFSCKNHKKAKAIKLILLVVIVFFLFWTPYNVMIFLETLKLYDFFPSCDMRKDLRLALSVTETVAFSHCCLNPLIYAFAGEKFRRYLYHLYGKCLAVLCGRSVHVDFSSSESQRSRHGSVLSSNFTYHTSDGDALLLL
row,SMILES,IC50 [nM]
1,"CC(C)C[C@H](CO)Nc1nc(C[C@H](C)c2ccc(F)c(F)c2F)nc(NS(C)(=O)=O)n1 (relative stereo) [Example 87, N-(4-(((R)-1-Hydroxy-4-methylpentan-2-yl)amino)-6-((S*)-2-(2,3,4-trifluorophenyl)propyl)-1,3,5-triazin-2-yl)methanesulfonamide]",186
2,"COc1cc(C)c([C@@H](C)Cc2nc(N[C@@H](CO)CC(C)C)nc(NS(C)(=O)=O)n2)cn1 (single isomer, unassigned) [Example 14, N-(4-(((R)-1-Hydroxy-4-methylpentan-2-yl)amino)-6-((S*)-2-(6-methoxy-4-methylpyridin-3-yl)propyl)-1,3,5-triazin-2-yl)methanesulfonamide]",> 10000
3,"COc1ccc([C@H](C)Cc2nc(N[C@@H](CO)CC(C)C)nc(NS(C)(=O)=O)n2)cc1F (single isomer, unassigned) [Example 19, N-(4-((R*)-2-(3-Fluoro-4-methoxyphenyl)propyl)-6-(((R)-1-hydroxy-4-methylpentan-2-yl)amino)-1,3,5-triazin-2-yl)methanesulfonamide]",33
4,"COc1ccc([C@@H](C)Cc2nc(N[C@@H](CO)CC(C)C)nc(NS(C)(=O)=O)n2)cc1F (single isomer, unassigned) [Example 20, N-(4-((S*)-2-(3-Fluoro-4-methoxyphenyl)propyl)-6-(((R)-1-hydroxy-4-methylpentan-2-yl)amino)-1,3,5-triazin-2-yl)methanesulfonamide]",958
5,"CC(C)C[C@H](CO)Nc1nc(C[C@H](C)c2cc(F)c(F)c(F)c2)nc(NS(C)(=O)=O)n1 (single isomer, unassigned) [Example 21, N-(4-(((R)-1-Hydroxy-4-methylpentan-2-yl)amino)-6-((S*)-2-(3,4,5-trifluorophenyl)propyl)-1,3,5-triazin-2-yl)methanesulfonamide]",6410
6,"CC(C)C[C@H](CO)Nc1nc(C[C@@H](C)c2cc(F)c(F)c(F)c2)nc(NS(C)(=O)=O)n1 (single isomer, unassigned) [Example 22, N-(4-(((R)-1-Hydroxy-4-methylpentan-2-yl)amino)-6-((R*)-2-(3,4,5-trifluorophenyl)propyl)-1,3,5-triazin-2-yl)methanesulfonamide]",257
7,"CC(C)C[C@H](CO)Nc1nc(C[C@H](C)c2cc(F)ccc2F)nc(NS(C)(=O)=O)n1 (single isomer, unassigned) [Example 23, N-(4-((S*)-2-(2,5-Difluorophenyl)propyl)-6-(((R)-1-hydroxy-4-methylpentan-2-yl)amino)-1,3,5-triazin-2-yl)methanesulfonamide]",548
8,"CC(C)C[C@H](CO)Nc1nc(C[C@@H](C)c2cc(F)ccc2F)nc(NS(C)(=O)=O)n1 (single isomer, unassigned) [Example 24, N-(4-((R*)-2-(2,5-Difluorophenyl)propyl)-6-(((R)-1-hydroxy-4-methylpentan-2-yl)amino)-1,3,5-triazin-2-yl)methanesulfonamide]",78
9,"CCOc1ccc([C@H](C)Cc2nc(N[C@@H](CO)CC(C)C)nc(NS(C)(=O)=O)n2)cn1 (single isomer, unassigned) [Example 27, N-(4-((R*)-2-(6-Ethoxypyridin-3-yl)propyl)-6-(((R)-1-hydroxy-4-methylpentan-2-yl)amino)-1,3,5-triazin-2-yl)methanesulfonamide]",138
10,"CCOc1ccc([C@@H](C)Cc2nc(N[C@@H](CO)CC(C)C)nc(NS(C)(=O)=O)n2)cn1 (single isomer, unassigned) [Example 28, N-(4-((S*)-2-(6-Ethoxypyridin-3-yl)propyl)-6-(((R)-1-hydroxy-4-methylpentan-2-yl)amino)-1,3,5-triazin-2-yl)methanesulfonamide]",2780
11,"CC(C)C[C@H](CO)Nc1nc(C[C@H](C)c2cc(Cl)ccc2F)nc(NS(C)(=O)=O)n1 (single isomer, unassigned) [Example 29, N-(4-((S*)-2-(5-Chloro-2-fluorophenyl)propyl)-6-(((R)-1-hydroxy-4-methylpentan-2-yl)amino)-1,3,5-triazin-2-yl)methanesulfonamide]",794
12,"CC(C)C[C@H](CO)Nc1nc(C[C@@H](C)c2cc(Cl)ccc2F)nc(NS(C)(=O)=O)n1 (single isomer, unassigned) [Example 30, N-(4-((R*)-2-(5-Chloro-2-fluorophenyl)propyl)-6-(((R)-1-hydroxy-4-methylpentan-2-yl)amino)-1,3,5-triazin-2-yl)methanesulfonamide]",148
13,"CC(C)C[C@H](CO)Nc1nc(C[C@@H](C)c2cc(F)c(Cl)c(F)c2)nc(NS(C)(=O)=O)n1 (single isomer, unassigned) [Example 31, N-(4-((R*)-2-(4-Chloro-3,5-difluorophenyl)propyl)-6-(((R)-1-hydroxy-4-methylpentan-2-yl)amino)-1,3,5-triazin-2-yl)methanesulfonamide]",287
14,"CC(C)C[C@H](CO)Nc1nc(C[C@H](C)c2cc(F)c(Cl)c(F)c2)nc(NS(C)(=O)=O)n1 (single isomer, unassigned) [Example 32, N-(4-((S*)-2-(4-Chloro-3,5-difluorophenyl)propyl)-6-(((R)-1-hydroxy-4-methylpentan-2-yl)amino)-1,3,5-triazin-2-yl)methanesulfonamide]",7560
15,"CC(C)C[C@H](CO)Nc1nc(C[C@H](C)c2ccc(Cl)c(F)c2F)nc(NS(C)(=O)=O)n1 (single isomer, unassigned) [Example 33, N-(4-((S*)-2-(4-Chloro-2,3-difluorophenyl)propyl)-6-(((R)-1-hydroxy-4-methylpentan-2-yl)amino)-1,3,5-triazin-2-yl)methanesulfonamide]",384
16,"CC(C)C[C@H](CO)Nc1nc(C[C@@H](C)c2ccc(Cl)c(F)c2F)nc(NS(C)(=O)=O)n1 (single isomer, unassigned) [Example 34, N-(4-((R*)-2-(4-Chloro-2,3-difluorophenyl)propyl)-6-(((R)-1-hydroxy-4-methylpentan-2-yl)amino)-1,3,5-triazin-2-yl)methanesulfonamide]",52
17,"CC(C)C[C@H](CO)Nc1nc(C[C@H](C)c2cc(F)c(F)cc2F)nc(NS(C)(=O)=O)n1 (single isomer, unassigned) [Example 35, N-(4-(((R)-1-Hydroxy-4-methylpentan-2-yl)amino)-6-((S*)-2-(2,4,5-trifluorophenyl)propyl)-1,3,5-triazin-2-yl)methanesulfonamide]",2530
18,"CC(C)C[C@H](CO)Nc1nc(C[C@@H](C)c2cc(F)c(F)cc2F)nc(NS(C)(=O)=O)n1 (single isomer, unassigned) [Example 36, N-(4-(((R)-1-Hydroxy-4-methylpentan-2-yl)amino)-6-((R*)-2-(2,4,5-trifluorophenyl)propyl)-1,3,5-triazin-2-yl)methanesulfonamide]",504
19,"CC(C)C[C@H](CO)Nc1nc(C[C@H](C)c2cc(F)c(Cl)cc2F)nc(NS(C)(=O)=O)n1 (single isomer, unassigned) [Example 37, N-(4-((S*)-2-(4-Chloro-2,5-difluorophenyl)propyl)-6-(((R)-1-hydroxy-4-methylpentan-2-yl)amino)-1,3,5-triazin-2-yl)methanesulfonamide]",1930
20,"CC(C)C[C@H](CO)Nc1nc(C[C@@H](C)c2cc(F)c(Cl)cc2F)nc(NS(C)(=O)=O)n1 (single isomer, unassigned) [Example 38, N-(4-((R*)-2-(4-Chloro-2,5-difluorophenyl)propyl)-6-(((R)-1-hydroxy-4-methylpentan-2-yl)amino)-1,3,5-triazin-2-yl)methanesulfonamide]",685
21,"CC(C)C[C@H](CO)Nc1nc(C[C@H](C)c2c(F)cc(F)cc2F)nc(NS(C)(=O)=O)n1 (single isomer, unassigned) [Example 39, N-(4-(((R)-1-Hydroxy-4-methylpentan-2-yl)amino)-6-((S*)-2-(2,4,6-trifluorophenyl)propyl)-1,3,5-triazin-2-yl)methanesulfonamide]",> 10000
22,"CC(C)C[C@H](CO)Nc1nc(C[C@@H](C)c2c(F)cc(F)cc2F)nc(NS(C)(=O)=O)n1 (single isomer, unassigned) [Example 40, N-(4-(((R)-1-Hydroxy-4-methylpentan-2-yl)amino)-6-((R*)-2-(2,4,6-trifluorophenyl)propyl)-1,3,5-triazin-2-yl)methanesulfonamide]",65
23,"CC(C)C[C@H](CO)Nc1nc(C[C@H](C)c2c(F)ccc(F)c2F)nc(NS(C)(=O)=O)n1 (single isomer, unassigned) [Example 41, N-(4-(((R)-1-Hydroxy-4-methylpentan-2-yl)amino)-6-((S*)-2-(2,3,6-trifluorophenyl)propyl)-1,3,5-triazin-2-yl)methanesulfonamide]",> 10000
24,"CC(C)C[C@H](CO)Nc1nc(C[C@@H](C)c2c(F)ccc(F)c2F)nc(NS(C)(=O)=O)n1 (single isomer, unassigned) [Example 42, N-(4-(((R)-1-Hydroxy-4-methylpentan-2-yl)amino)-6-((R*)-2-(2,3,6-trifluorophenyl)propyl)-1,3,5-triazin-2-yl)methanesulfonamide]",30
25,"CC(C)C[C@H](CO)Nc1nc(C[C@H](C)c2c(F)cc(Cl)cc2F)nc(NS(C)(=O)=O)n1 (single isomer, unassigned) [Example 43, N-(4-((S*)-2-(4-Chloro-2,6-difluorophenyl)propyl)-6-(((R)-1-hydroxy-4-methylpentan-2-yl)amino)-1,3,5-triazin-2-yl)methanesulfonamide]",9110
